Source: the supplement of paper PMC10307832

How the values were obtained:
Assay in all cases: relative viability (nuclei count vs DMSO), 5 days (fraction); higher = more cells survive
[1] = compound: CC(O)(CS(=O)(=O)c1ccc(F)cc1)C(=O)Nc1ccc(C#N)c(C(F)(F)F)c1 [Bicalutamide] + C[C@]1(O)C[C@@H](c2nc(-c3ccc4ccc(-c5ccccc5)nc4c3)c3c(N)nccn32)C1 [Linsitinib] (partner 1 µM)
How it was run: (§1)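 The day after seeding in 1536-well plates, lung cancer cell lines were treated by pin tool with a single drug, or with a fixed anchor-drug dose together with five library-drug doses (not always all listed) in √10 steps. After 5 days, a combined fix-and-stain solution (final 0.05% Triton X-100, 1% formaldehyde, 1 ug/ml Hoechst) was added. Nuclei counted on 4× images gave relative viability as treated counts over vehicle counts, reported as the median of duplicate plates.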

[2] = compound: C(C(=O)C(=O)O)Br [Bromopyruvate] + CC1(C)CCC(c2ccc(Cl)cc2)=C(CN2CCN(c3ccc(C(=O)NS(=O)(=O)c4ccc(N[C@H](CCN5CCOCC5)CSc5ccccc5)c(S(=O)(=O)C(F)(F)F)c4)cc3)CC2)C1 [Navitoclax] (partner 0.5 µM)
How it was run: as §1

[3] = compound: CC(O)(CS(=O)(=O)c1ccc(F)cc1)C(=O)Nc1ccc(C#N)c(C(F)(F)F)c1 [Bicalutamide] + C[C@@H](Oc1cc(-c2cnn(C3CCNCC3)c2)cnc1N)c1c(Cl)ccc(F)c1Cl [Crizotinib] (partner 1 µM)
How it was run: as §1

[4] = compound: C(C(=O)C(=O)O)Br [Bromopyruvate] + CC(=O)c1c(C)c2cnc(Nc3ccc(N4CCNCC4)cn3)nc2n(C2CCCC2)c1=O [Palbociclib] (partner 0.5 µM)
How it was run: as §1

| Cell Line | relative viability ([1]; first compound 0.08 µM) | relative viability ([1]; first compound 0.253 µM) | relative viability ([1]; first compound 0.8 µM) | relative viability ([1]; first compound 2.53 µM) | relative viability ([2]; first compound 1 µM) | relative viability ([2]; first compound 3.162 µM) | relative viability ([2]; first compound 10 µM) | relative viability ([2]; first compound 31.62 µM) | relative viability ([2]; first compound 100 µM) | relative viability ([3]; first compound 0.08 µM) | relative viability ([3]; first compound 0.253 µM) | relative viability ([3]; first compound 0.8 µM) | relative viability ([3]; first compound 2.53 µM) | relative viability ([4]; first compound 1 µM) | relative viability ([4]; first compound 3.162 µM) | relative viability ([4]; first compound 10 µM) | relative viability ([4]; first compound 31.62 µM) | relative viability ([4]; first compound 100 µM) |
| --- | --- | --- | --- | --- | --- | --- | --- | --- | --- | --- | --- | --- | --- | --- | --- | --- | --- | --- |
| EBC-1 | 0.874 | 0.874 | 1.05 | 0.858 | 0.448 | 0.528 | 0.433 | 0.453 | 0.358 | 0.166 | 0.185 | 0.186 | 0.185 | – | – | – | – | – |
| EKVX | 1.06 | 1.04 | 1.06 | 0.894 | 0.887 | 0.995 | 1.06 | 0.95 | 1.07 | 0.924 | 0.81 | 1.14 | 0.801 | 0.217 | 0.387 | 0.459 | 0.494 | 0.44 |
| EMC-BAC-2 | 0.854 | 0.796 | 0.803 | 0.756 | 1.02 | 1.17 | 1.31 | 1.15 | 1.25 | 0.781 | 0.716 | 0.904 | 0.586 | 0.434 | 0.546 | 0.554 | 0.506 | 0.533 |
| EPLC-272H | 1.17 | 1.13 | 1.33 | 1.16 | 1.15 | 1.22 | 1.01 | 1.2 | 1.34 | 0.947 | 0.898 | 1.01 | 0.833 | 0.321 | 0.372 | 0.386 | 0.31 | 0.362 |
| H3255 | 0.949 | 0.848 | 1.08 | 0.867 | 0.575 | 0.603 | 0.512 | 0.504 | 0.512 | 0.963 | 0.845 | 1.05 | 0.719 | 0.314 | 0.31 | 0.297 | 0.308 | 0.309 |
| HARA | 0.953 | 0.797 | 1.06 | 1.1 | 1.12 | 1.16 | 1.13 | 1.17 | 1.14 | 0.946 | 1.07 | 1.19 | 1.09 | 0.254 | 0.283 | 0.296 | 0.259 | 0.261 |
| HCC-15 | 0.826 | 0.837 | 0.932 | 0.969 | 0.697 | 0.723 | 0.759 | 0.765 | 0.657 | 0.82 | 0.767 | 1.01 | 0.882 | 0.654 | 0.677 | 0.846 | 0.771 | 0.741 |
| HCC-44 | 0.67 | 0.664 | 0.691 | 0.788 | 0.907 | 0.967 | 1.08 | 0.96 | 1.04 | 0.838 | 0.817 | 0.832 | 0.968 | 0.985 | 0.912 | 0.944 | 1.01 | 0.991 |
| HCC-78 | 0.585 | 0.462 | 0.599 | 0.445 | 0.386 | 0.759 | 0.977 | 0.893 | 0.886 | 0.355 | 0.362 | 0.37 | 0.319 | 0.446 | 0.471 | 0.455 | 0.514 | 0.407 |
